Reference: ChEMBL document CHEMBL1240494, “Radiosynthesis and in vivo evaluation of [(11)C]MC80 for P-glycoprotein imaging” (Bioorg Med Chem, 2010)

Experiments:
[1] = Partition coefficient, log D of the compound; assay type: physicochemical; settings: octanol/water
Heart [2] = assay: Biodistribution in FVB mouse heart at 4.5 MBq, iv after 1 min postinjection; assay type: ADME, organism-based; settings: in vivo
Pancreas = assay: Biodistribution in FVB mouse pancreas at 4.5 MBq, iv after 60 mins postinjection pretreated with cyclosporin A; assay type: ADME, organism-based; settings: in vivo, 1 h
Liver [3] = assay: Biodistribution in FVB mouse liver at 4.5 MBq, iv; assay type: ADME, organism-based; settings: in vivo
[4] = Biodistribution in FVB mouse small intestine at 4.5 MBq, iv after 90 mins postinjection; assay type: ADME, organism-based; settings: in vivo, 1.5 h
[5] = Ratio of drug uptake in brain to blood in FVB mouse at 18.5 MBq, iv after 1 min postinjection pretreated with cyclosporin A; assay type: ADME, organism-based
[6] = Biodistribution in FVB mouse small intestine at 4.5 MBq, iv after 1 min postinjection; assay type: ADME, organism-based; settings: in vivo
[7] = Ratio of drug uptake in brain to blood in FVB mouse at 18.5 MBq, iv after 30 mins postinjection pretreated with cyclosporin A; assay type: ADME, organism-based; settings: 0.5 h
[8] = Biodistribution in FVB mouse large intestine at 4.5 MBq, iv after 1 min postinjection; assay type: ADME, organism-based; settings: in vivo
Heart [9] = assay: Biodistribution in mdr1a deficient mouse heart at 4.5 MBq, iv after 60 mins postinjection; assay type: ADME, organism-based; settings: in vivo, 1 h
Spleen = assay: Biodistribution in FVB mouse spleen at 4.5 MBq, iv after 60 mins postinjection pretreated with cyclosporin A; assay type: ADME, organism-based; settings: in vivo, 1 h
Kidney [10] = assay: Biodistribution in FVB mouse kidney at 4.5 MBq, iv after 60 mins postinjection pretreated with cyclosporin A; assay type: ADME, organism-based; settings: in vivo, 1 h
Liver [11] = assay: Biodistribution in FVB mouse liver at 4.5 MBq, iv after 60 mins postinjection pretreated with cyclosporin A; assay type: ADME, organism-based; settings: in vivo, 1 h
Brain [12] = assay: Biodistribution in FVB mouse brain at 4.5 MBq, iv after 90 mins postinjection; assay type: ADME, organism-based; settings: in vivo, 1.5 h
[13] = Ratio of drug uptake in brain to blood in FVB mouse at 18.5 MBq, iv after 90 mins postinjection; assay type: ADME, organism-based; settings: 1.5 h
Lung [14] = assay: Biodistribution in mdr1a deficient mouse lung at 4.5 MBq, iv after 1 min postinjection; assay type: ADME, organism-based; settings: in vivo
Blood = assay: Biodistribution in FVB mouse blood at 4.5 MBq, iv after 1 min postinjection; assay type: ADME, organism-based; settings: in vivo
Brain [15] = assay: Biodistribution in FVB mouse brain at 4.5 MBq, iv after 1 min postinjection; assay type: ADME, organism-based; settings: in vivo
[16] = Biodistribution in FVB mouse large intestine at 4.5 MBq, iv after 90 mins postinjection; assay type: ADME, organism-based; settings: in vivo, 1.5 h
Lung [17] = assay: Biodistribution in FVB mouse lung at 4.5 MBq, iv after 1 min postinjection; assay type: ADME, organism-based; settings: in vivo
[18] = Ratio of drug uptake in testes to blood in FVB mouse at 18.5 MBq, iv after 30 mins postinjection; assay type: ADME, organism-based; settings: in vivo, 0.5 h
Brain [19] = assay: Biodistribution in mdr1a deficient mouse brain at 4.5 MBq, iv after 60 mins postinjection; assay type: ADME, organism-based; settings: in vivo, 1 h
[20] = Ratio of drug uptake in brain to blood in FVB mouse at 18.5 MBq, iv after 30 mins postinjection; assay type: ADME, organism-based; settings: 0.5 h
Kidney [21] = assay: Biodistribution in mdr1a deficient mouse kidney at 4.5 MBq, iv after 60 mins postinjection; assay type: ADME, organism-based; settings: in vivo, 1 h
Liver [22] = assay: Biodistribution in mdr1a deficient mouse liver at 4.5 MBq, iv after 60 mins postinjection; assay type: ADME, organism-based; settings: in vivo, 1 h
[23] = Biodistribution in FVB mouse testes at 4.5 MBq, iv after 60 mins postinjection pretreated with cyclosporin A; assay type: ADME, organism-based, Testis; settings: in vivo, 1 h

logD [1]: 1.96 | Drug uptake (Heart [2]): 10.69 % ID/g | Drug uptake (Pancreas): 6.85 % ID/g | Drug uptake (Liver [3]): 8.71 % ID/g | Drug uptake [4]: 11.78 % ID/g | Ratio [5]: 2.91 | Drug uptake [6]: 3.89 % ID/g | Ratio [7]: 1.5 | Drug uptake [8]: 1.83 % ID/g | Drug uptake (Heart [9]): 10.69 % ID/g | Drug uptake (Spleen): 1.52 % ID/g | Drug uptake (Kidney [10]): 2.46 % ID/g | Drug uptake (Liver [11]): 4.86 % ID/g | Drug uptake (Brain [12]): 0.9 % ID/g | Ratio [13]: 1.05 | Drug uptake (Lung [14]): 31.35 % ID/g | Drug uptake (Blood): 2.56 % ID/g | Drug uptake (Brain [15]): 7.66 % ID/g | Drug uptake [16]: 2.18 % ID/g | Drug uptake (Lung [17]): 31.35 % ID/g | Ratio [18]: 3.04 | Drug uptake (Brain [19]): 1.09 % ID/g | Ratio [20]: 2.17 | Drug uptake (Kidney [21]): 2.46 % ID/g | Drug uptake (Liver [22]): 4.86 % ID/g | Drug uptake [23]: 2.56 % ID/g
Structure (SMILES): COc1cc2c(cc1OC)CN(Cc1ccc3cc(O[11CH3])ccc3c1)CC2
